Laboratory results published in patent US20030224416A1, “Schizophrenia related gene” (priority 2002, published 2003).

System: Kv3.1 α-subunit mRNA
Assay: Experiment 1: in situ hybridization of Kv3.1 α-subunit mRNA in brain, chronic PCP rat model of schizophrenia with antipsychotic co-treatment
Type: in vivo

Compound: CN1CCN(C2=Nc3ccc(F)cc3Nc3sc4ccccc4c32)CC1.O=C(O)/C=C\C(=O)O [Y-931, 8-fluoro-12-(4-methylpiperazin-1-yl)-6H-[l]benzothieno[2,3-b][1,5]benzo-diazepine monomaleate]
- Kv3.1 α-subunit mRNA expression (ACg, PCP + drug 0.3 mg/kg/day): 15.36 ± 0.29 PSL/mm^2
- Kv3.1 α-subunit mRNA expression (ACg, PCP + drug 1 mg/kg/day): 15.10 ± 0.92 PSL/mm^2
- Kv3.1 α-subunit mRNA expression (ACg, PCP + drug 3 mg/kg/day): 15.40 ± 0.83 PSL/mm^2
- Kv3.1 α-subunit mRNA expression (ACg, PCP + drug 10 mg/kg/day): 14.82 ± 0.74 PSL/mm^2
- Kv3.1 α-subunit mRNA expression (AcbC, PCP + drug 0.3 mg/kg/day): 7.65 ± 0.40 PSL/mm^2
- Kv3.1 α-subunit mRNA expression (AcbC, PCP + drug 1 mg/kg/day): 8.40 ± 0.63 PSL/mm^2
- Kv3.1 α-subunit mRNA expression (AcbC, PCP + drug 3 mg/kg/day): 8.44 ± 0.43 PSL/mm^2
- Kv3.1 α-subunit mRNA expression (AcbC, PCP + drug 10 mg/kg/day): 8.42 ± 0.53 PSL/mm^2
- Kv3.1 α-subunit mRNA expression (AcbS, PCP + drug 0.3 mg/kg/day): 10.24 ± 0.64 PSL/mm^2
- Kv3.1 α-subunit mRNA expression (AcbS, PCP + drug 1 mg/kg/day): 11.55 ± 0.50 PSL/mm^2
- Kv3.1 α-subunit mRNA expression (AcbS, PCP + drug 3 mg/kg/day): 11.11 ± 0.27 PSL/mm^2
- Kv3.1 α-subunit mRNA expression (AcbS, PCP + drug 10 mg/kg/day): 11.26 ± 0.67 PSL/mm^2
- Kv3.1 α-subunit mRNA expression (Au1, PCP + drug 0.3 mg/kg/day): 17.02 ± 1.26 PSL/mm^2
- Kv3.1 α-subunit mRNA expression (Au1, PCP + drug 1 mg/kg/day): 18.48 ± 1.36 PSL/mm^2
- Kv3.1 α-subunit mRNA expression (Au1, PCP + drug 3 mg/kg/day): 16.76 ± 0.32 PSL/mm^2
- Kv3.1 α-subunit mRNA expression (Au1, PCP + drug 10 mg/kg/day): 17.98 ± 0.68 PSL/mm^2
- Kv3.1 α-subunit mRNA expression (CA1pd, PCP + drug 0.3 mg/kg/day): 16.80 ± 1.23 PSL/mm^2
- Kv3.1 α-subunit mRNA expression (CA1pd, PCP + drug 1 mg/kg/day): 18.34 ± 0.91 PSL/mm^2
- Kv3.1 α-subunit mRNA expression (CA1pd, PCP + drug 3 mg/kg/day): 16.47 ± 0.98 PSL/mm^2
- Kv3.1 α-subunit mRNA expression (CA1pd, PCP + drug 10 mg/kg/day): 19.18 ± 2.03 PSL/mm^2
- Kv3.1 α-subunit mRNA expression (CA2pd, PCP + drug 0.3 mg/kg/day): 24.07 ± 1.74 PSL/mm^2
- Kv3.1 α-subunit mRNA expression (CA2pd, PCP + drug 1 mg/kg/day): 20.07 ± 1.71 PSL/mm^2
- Kv3.1 α-subunit mRNA expression (CA2pd, PCP + drug 3 mg/kg/day): 21.47 ± 2.23 PSL/mm^2
- Kv3.1 α-subunit mRNA expression (CA2pd, PCP + drug 10 mg/kg/day): 22.31 ± 1.57 PSL/mm^2
- Kv3.1 α-subunit mRNA expression (CA3pd, PCP + drug 0.3 mg/kg/day): 34.10 ± 1.52 PSL/mm^2
- Kv3.1 α-subunit mRNA expression (CA3pd, PCP + drug 1 mg/kg/day): 33.99 ± 3.29 PSL/mm^2
- Kv3.1 α-subunit mRNA expression (CA3pd, PCP + drug 3 mg/kg/day): 34.72 ± 1.24 PSL/mm^2
- Kv3.1 α-subunit mRNA expression (CA3pd, PCP + drug 10 mg/kg/day): 33.90 ± 2.52 PSL/mm^2
- Kv3.1 α-subunit mRNA expression (DGgd, PCP + drug 0.3 mg/kg/day): 38.38 ± 1.53 PSL/mm^2
- Kv3.1 α-subunit mRNA expression (DGgd, PCP + drug 1 mg/kg/day): 39.21 ± 1.75 PSL/mm^2
- Kv3.1 α-subunit mRNA expression (DGgd, PCP + drug 3 mg/kg/day): 36.93 ± 2.53 PSL/mm^2
- Kv3.1 α-subunit mRNA expression (DGgd, PCP + drug 10 mg/kg/day): 36.11 ± 2.06 PSL/mm^2
- Kv3.1 α-subunit mRNA expression (DLStr, PCP + drug 0.3 mg/kg/day): 6.55 ± 0.53 PSL/mm^2
- Kv3.1 α-subunit mRNA expression (DLStr, PCP + drug 1 mg/kg/day): 5.99 ± 0.96 PSL/mm^2
- Kv3.1 α-subunit mRNA expression (DLStr, PCP + drug 3 mg/kg/day): 7.13 ± 0.70 PSL/mm^2
- Kv3.1 α-subunit mRNA expression (DLStr, PCP + drug 10 mg/kg/day): 7.46 ± 0.86 PSL/mm^2
- Kv3.1 α-subunit mRNA expression (IL, PCP + drug 0.3 mg/kg/day): 11.64 ± 0.40 PSL/mm^2
- Kv3.1 α-subunit mRNA expression (IL, PCP + drug 1 mg/kg/day): 11.33 ± 0.60 PSL/mm^2
- Kv3.1 α-subunit mRNA expression (IL, PCP + drug 3 mg/kg/day): 12.91 ± 0.38 PSL/mm^2
- Kv3.1 α-subunit mRNA expression (IL, PCP + drug 10 mg/kg/day): 11.55 ± 0.45 PSL/mm^2
- Kv3.1 α-subunit mRNA expression (IO, PCP + drug 0.3 mg/kg/day): 17.52 ± 0.95 PSL/mm^2
- Kv3.1 α-subunit mRNA expression (IO, PCP + drug 1 mg/kg/day): 15.49 ± 0.30 PSL/mm^2
- Kv3.1 α-subunit mRNA expression (IO, PCP + drug 3 mg/kg/day): 17.52 ± 0.36 PSL/mm^2
- Kv3.1 α-subunit mRNA expression (IO, PCP + drug 10 mg/kg/day): 15.30 ± 0.62 PSL/mm^2
- Kv3.1 α-subunit mRNA expression (M1, PCP + drug 0.3 mg/kg/day): 15.33 ± 0.38 PSL/mm^2
- Kv3.1 α-subunit mRNA expression (M1, PCP + drug 1 mg/kg/day): 14.81 ± 0.80 PSL/mm^2
- Kv3.1 α-subunit mRNA expression (M1, PCP + drug 3 mg/kg/day): 17.01 ± 0.75 PSL/mm^2
- Kv3.1 α-subunit mRNA expression (M1, PCP + drug 10 mg/kg/day): 16.51 ± 0.67 PSL/mm^2
- Kv3.1 α-subunit mRNA expression (M2, PCP + drug 0.3 mg/kg/day): 13.23 ± 0.29 PSL/mm^2
- Kv3.1 α-subunit mRNA expression (M2, PCP + drug 1 mg/kg/day): 13.10 ± 0.57 PSL/mm^2
- Kv3.1 α-subunit mRNA expression (M2, PCP + drug 3 mg/kg/day): 14.25 ± 0.81 PSL/mm^2
- Kv3.1 α-subunit mRNA expression (M2, PCP + drug 10 mg/kg/day): 13.04 ± 0.53 PSL/mm^2
- Kv3.1 α-subunit mRNA expression (MG, PCP + drug 0.3 mg/kg/day): 26.82 ± 1.55 PSL/mm^2
- Kv3.1 α-subunit mRNA expression (MG, PCP + drug 1 mg/kg/day): 26.36 ± 0.95 PSL/mm^2
- Kv3.1 α-subunit mRNA expression (MG, PCP + drug 3 mg/kg/day): 26.75 ± 2.02 PSL/mm^2
- Kv3.1 α-subunit mRNA expression (MG, PCP + drug 10 mg/kg/day): 27.36 ± 1.86 PSL/mm^2
- Kv3.1 α-subunit mRNA expression (MM, PCP + drug 0.3 mg/kg/day): 25.02 ± 2.54 PSL/mm^2
- Kv3.1 α-subunit mRNA expression (MM, PCP + drug 1 mg/kg/day): 24.82 ± 0.93 PSL/mm^2
- Kv3.1 α-subunit mRNA expression (MM, PCP + drug 3 mg/kg/day): 20.92 ± 0.93 PSL/mm^2
- Kv3.1 α-subunit mRNA expression (MM, PCP + drug 10 mg/kg/day): 28.12 ± 1.89 PSL/mm^2
- Kv3.1 α-subunit mRNA expression (Pir, PCP + drug 0.3 mg/kg/day): 38.95 ± 2.38 PSL/mm^2
- Kv3.1 α-subunit mRNA expression (Pir, PCP + drug 1 mg/kg/day): 43.16 ± 2.76 PSL/mm^2
- Kv3.1 α-subunit mRNA expression (Pir, PCP + drug 3 mg/kg/day): 38.15 ± 3.31 PSL/mm^2
- Kv3.1 α-subunit mRNA expression (Pir, PCP + drug 10 mg/kg/day): 41.69 ± 1.90 PSL/mm^2
- Kv3.1 α-subunit mRNA expression (PrL, PCP + drug 0.3 mg/kg/day): 12.76 PSL/mm^2
- Kv3.1 α-subunit mRNA expression (PrL, PCP + drug 1 mg/kg/day): 12.17 PSL/mm^2
- Kv3.1 α-subunit mRNA expression (PrL, PCP + drug 3 mg/kg/day): 12.93 PSL/mm^2
- Kv3.1 α-subunit mRNA expression (PrL, PCP + drug 10 mg/kg/day): 12.55 PSL/mm^2
- effect on PCP-induced decrease in Kv3.1 α-subunit mRNA expression (PrL, all doses administered (0.3-10 mg/kg/day)): significantly reversed the PCP-induced decrease back to control levels
- Kv3.1 α-subunit mRNA expression (RSa, PCP + drug 0.3 mg/kg/day): 19.22 ± 1.40 PSL/mm^2
- Kv3.1 α-subunit mRNA expression (RSa, PCP + drug 1 mg/kg/day): 18.90 ± 1.03 PSL/mm^2
- Kv3.1 α-subunit mRNA expression (RSa, PCP + drug 3 mg/kg/day): 17.36 ± 1.55 PSL/mm^2
- Kv3.1 α-subunit mRNA expression (RSa, PCP + drug 10 mg/kg/day): 18.04 ± 0.87 PSL/mm^2
- Kv3.1 α-subunit mRNA expression (RSg, PCP + drug 0.3 mg/kg/day): 20.89 ± 0.95 PSL/mm^2
- Kv3.1 α-subunit mRNA expression (RSg, PCP + drug 1 mg/kg/day): 19.99 ± 0.59 PSL/mm^2
- Kv3.1 α-subunit mRNA expression (RSg, PCP + drug 3 mg/kg/day): 20.73 ± 1.22 PSL/mm^2
- Kv3.1 α-subunit mRNA expression (RSg, PCP + drug 10 mg/kg/day): 19.48 ± 0.64 PSL/mm^2
- Kv3.1 α-subunit mRNA expression (SN, PCP + drug 0.3 mg/kg/day): 11.66 ± 0.91 PSL/mm^2
- Kv3.1 α-subunit mRNA expression (SN, PCP + drug 1 mg/kg/day): 12.98 ± 1.12 PSL/mm^2
- Kv3.1 α-subunit mRNA expression (SN, PCP + drug 3 mg/kg/day): 13.04 ± 1.29 PSL/mm^2
- Kv3.1 α-subunit mRNA expression (SN, PCP + drug 10 mg/kg/day): 15.34 ± 1.58 PSL/mm^2
- Kv3.1 α-subunit mRNA expression (VMStr, PCP + drug 0.3 mg/kg/day): 6.75 ± 0.50 PSL/mm^2
- Kv3.1 α-subunit mRNA expression (VMStr, PCP + drug 1 mg/kg/day): 7.18 ± 0.71 PSL/mm^2
- Kv3.1 α-subunit mRNA expression (VMStr, PCP + drug 3 mg/kg/day): 7.69 ± 0.35 PSL/mm^2
- Kv3.1 α-subunit mRNA expression (VMStr, PCP + drug 10 mg/kg/day): 7.23 ± 0.26 PSL/mm^2
- Kv3.1 α-subunit mRNA expression (VO, PCP + drug 0.3 mg/kg/day): 19.12 ± 0.74 PSL/mm^2
- Kv3.1 α-subunit mRNA expression (VO, PCP + drug 1 mg/kg/day): 17.81 ± 1.08 PSL/mm^2
- Kv3.1 α-subunit mRNA expression (VO, PCP + drug 3 mg/kg/day): 19.32 ± 0.63 PSL/mm^2
- Kv3.1 α-subunit mRNA expression (VO, PCP + drug 10 mg/kg/day): 18.51 ± 1.08 PSL/mm^2
- effect on PCP-induced decreases in Kv3.1 α-subunit mRNA expression (summary) (chronic co-administration with PCP): reversed
- effect on PCP-induced decrease in Kv3.1 α-subunit mRNA expression (dRt and DLStr): neither Y-931 nor olanzapine significantly modulated the PCP-induced effect
- Kv3.1 α-subunit mRNA expression (dRt, PCP + drug 0.3 mg/kg/day): 54.94 ± 1.99 PSL/mm^2
- Kv3.1 α-subunit mRNA expression (dRt, PCP + drug 1 mg/kg/day): 51.68 ± 2.34 PSL/mm^2
- Kv3.1 α-subunit mRNA expression (dRt, PCP + drug 3 mg/kg/day): 53.38 ± 2.99 PSL/mm^2
- Kv3.1 α-subunit mRNA expression (dRt, PCP + drug 10 mg/kg/day): 54.81 ± 1.90 PSL/mm^2
- Kv3.1 α-subunit mRNA expression (vRt, PCP + drug 0.3 mg/kg/day): 46.91 ± 2.73 PSL/mm^2
- Kv3.1 α-subunit mRNA expression (vRt, PCP + drug 1 mg/kg/day): 47.18 ± 2.10 PSL/mm^2
- Kv3.1 α-subunit mRNA expression (vRt, PCP + drug 3 mg/kg/day): 52.57 ± 2.00 PSL/mm^2
- Kv3.1 α-subunit mRNA expression (vRt, PCP + drug 10 mg/kg/day): 49.70 ± 2.76 PSL/mm^2
